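Abbreviation: GI50, concentration required for 50% inhibition of growth. TGI is the concentration that stops growth completely.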
What was measured:
Test in all cases: NCI-60 cell line screen, 384-well format
786-0 renal = tested on: 786-0 renal
A498 renal = tested on: A498 renal
A549 NSCLC = tested on: A549 NSCLC
ACHN renal = tested on: ACHN renal
CAKI-1 renal = tested on: CAKI-1 renal
CCRF-CEM leukemia = tested on: CCRF-CEM leukemia
COLO 205 colon = tested on: COLO 205 colon
DU-145 prostate = tested on: DU-145 prostate
HCC-2998 colon = tested on: HCC-2998 colon
HCT-116 colon = tested on: HCT-116 colon
HCT-15 colon = tested on: HCT-15 colon
HL-60(TB) leukemia = tested on: HL-60(TB) leukemia
HOP-62 NSCLC = tested on: HOP-62 NSCLC
HOP-92 NSCLC = tested on: HOP-92 NSCLC
HT29 colon = tested on: HT29 colon
IGROV1 ovarian = tested on: IGROV1 ovarian
K-562 leukemia = tested on: K-562 leukemia
KM12 colon = tested on: KM12 colon
LOX IMVI melanoma = tested on: LOX IMVI melanoma
M14 melanoma = tested on: M14 melanoma
MALME-3M melanoma = tested on: MALME-3M melanoma
MCF7 breast = tested on: MCF7 breast
MDA-MB-435 melanoma = tested on: MDA-MB-435 melanoma
MDA-MB-468 breast = tested on: MDA-MB-468 breast
MOLT-4 leukemia = tested on: MOLT-4 leukemia
NCI-H226 lung = tested on: NCI-H226 lung
NCI-H23 lung = tested on: NCI-H23 lung
NCI-H322M lung = tested on: NCI-H322M lung
NCI-H460 NSCLC = tested on: NCI-H460 NSCLC
NCI-H522 lung = tested on: NCI-H522 lung
NCI/ADR-RES ovarian = tested on: NCI/ADR-RES ovarian
OVCAR-3 ovarian = tested on: OVCAR-3 ovarian
OVCAR-4 ovarian = tested on: OVCAR-4 ovarian
OVCAR-5 ovarian = tested on: OVCAR-5 ovarian
OVCAR-8 ovarian = tested on: OVCAR-8 ovarian
PC-3 prostate = tested on: PC-3 prostate
RPMI-8226 leukemia = tested on: RPMI-8226 leukemia
RXF 393 renal = tested on: RXF 393 renal
SF-268 CNS = tested on: SF-268 CNS
SF-295 CNS = tested on: SF-295 CNS
SF-539 CNS = tested on: SF-539 CNS
SK-MEL-2 melanoma = tested on: SK-MEL-2 melanoma
SK-MEL-28 melanoma = tested on: SK-MEL-28 melanoma
SK-MEL-5 melanoma = tested on: SK-MEL-5 melanoma
SK-OV-3 ovarian = tested on: SK-OV-3 ovarian
SN12C renal = tested on: SN12C renal
SNB-19 CNS = tested on: SNB-19 CNS
SR leukemia = tested on: SR leukemia
SW-620 colon = tested on: SW-620 colon
T-47D breast = tested on: T-47D breast
TK-10 renal = tested on: TK-10 renal
U251 glioblastoma = tested on: U251 glioblastoma
UACC-257 melanoma = tested on: UACC-257 melanoma
UACC-62 melanoma = tested on: UACC-62 melanoma
UO-31 renal = tested on: UO-31 renal

CC[C@H](NC(=O)[C@H](C)NC)C(=O)N1C[C@@H](O)C[C@H]1Cc1c(-c2[nH]c3cc(F)ccc3c2C[C@@H]2C[C@H](O)CN2C(=O)[C@H](CC)NC(=O)[C@H](C)NC)[nH]c2cc(F)ccc12
GI50 ([…]-0 renal): > 100 µM | TGI (786-0 renal): > 100 µM | GI50 (A498 renal): > 100 µM | TGI (A498 renal): > 100 µM | GI50 (A549 NSCLC): > 100 µM | TGI (A549 NSCLC): > 100 µM | GI50 (ACHN renal): > 100 µM | TGI (ACHN renal): > 100 µM | GI50 (CAKI-1 renal): > 100 µM | TGI (CAKI-1 renal): > 100 µM | GI50 (CCRF-CEM leukemia): 0.028 µM | TGI (CCRF-CEM leukemia): 16.8 µM | GI50 (COLO 205 colon): 37 µM | TGI (COLO 205 colon): > 100 µM | GI50 (DU-145 prostate): 24.2 µM | TGI (DU-145 prostate): > 100 µM | GI50 (HCC-2998 colon): 16.6 µM | TGI (HCC-2998 colon): 49.8 µM | GI50 (HCT-116 colon): 35 µM | TGI (HCT-116 colon): > 100 µM | GI50 (HCT-15 colon): > 100 µM | TGI (HCT-15 colon): > 100 µM | GI50 (HL-60(TB) leukemia): < 0.01 µM | TGI (HL-60(TB) leukemia): < 0.01 µM | GI50 (HOP-62 NSCLC): 0.555 µM | TGI (HOP-62 NSCLC): 8.66 µM | GI50 (HOP-92 NSCLC): 0.785 µM | TGI (HOP-92 NSCLC): 13.5 µM | GI50 (HT29 colon): 16.4 µM | TGI (HT29 colon): 39.8 µM | GI50 (IGROV1 ovarian): > 100 µM | TGI (IGROV1 ovarian): > 100 µM | GI50 (K-562 leukemia): 21.9 µM | TGI (K-562 leukemia): 50.7 µM | GI50 (KM12 colon): 23.8 µM | TGI (KM12 colon): 74.5 µM | GI50 (LOX IMVI melanoma): 20.1 µM | TGI (LOX IMVI melanoma): 35.9 µM | GI50 (M14 melanoma): > 100 µM | TGI (M14 melanoma): > 100 µM | GI50 (MALME-3M melanoma): 0.0143 µM | TGI (MALME-3M melanoma): 0.132 µM | GI50 (MCF7 breast): 15.1 µM | TGI (MCF7 breast): 31.4 µM | GI50 (MDA-MB-435 melanoma): 0.0982 µM | TGI (MDA-MB-435 melanoma): > 100 µM | GI50 (MDA-MB-468 breast): < 0.01 µM | TGI (MDA-MB-468 breast): 0.637 µM | GI50 (MOLT-4 leukemia): 16.4 µM | TGI (MOLT-4 leukemia): 30.2 µM | GI50 (NCI-H226 lung): > 100 µM | TGI (NCI-H226 lung): > 100 µM | GI50 (NCI-H23 lung): 0.0611 µM | TGI (NCI-H23 lung): 13.1 µM | GI50 (NCI-H322M lung): > 100 µM | TGI (NCI-H322M lung): > 100 µM | GI50 (NCI-H460 NSCLC): 18 µM | TGI (NCI-H460 NSCLC): 38.1 µM | GI50 (NCI-H522 lung): 0.0544 µM | TGI (NCI-H522 lung): 12.9 µM | GI50 (NCI/ADR-RES ovarian): > 100 µM | TGI (NCI/ADR-RES ovarian): > 100 µM | GI50 (OVCAR-3 ovarian): 17.9 µM | TGI (OVCAR-3 ovarian): > 100 µM | GI50 (OVCAR-4 ovarian): < 0.01 µM | TGI (OVCAR-4 ovarian): < 0.01 µM | GI50 (OVCAR-5 ovarian): > 100 µM | TGI (OVCAR-5 ovarian): > 100 µM | GI50 (OVCAR-8 ovarian): 17 µM | TGI (OVCAR-8 ovarian): > 100 µM | GI50 (PC-3 prostate): 63 µM | TGI (PC-3 prostate): > 100 µM | GI50 (RPMI-8226 leukemia): 0.102 µM | TGI (RPMI-8226 leukemia): 0.896 µM | GI50 (RXF 393 renal): < 0.01 µM | TGI (RXF 393 renal): 0.0829 µM | GI50 (SF-268 CNS): 28.1 µM | TGI (SF-268 CNS): 90.6 µM | GI50 (SF-295 CNS): 82 µM | TGI (SF-295 CNS): > 100 µM | GI50 (SF-539 CNS): 14.6 µM | TGI (SF-539 CNS): 32.5 µM | GI50 (SK-MEL-2 melanoma): < 0.01 µM | TGI (SK-MEL-2 melanoma): < 0.01 µM | GI50 (SK-MEL-28 melanoma): 86.3 µM | TGI (SK-MEL-28 melanoma): > 100 µM | GI50 (SK-MEL-5 melanoma): 0.112 µM | TGI (SK-MEL-5 melanoma): 0.438 µM | GI50 (SK-OV-3 ovarian): < 0.01 µM | TGI (SK-OV-3 ovarian): < 0.01 µM | GI50 (SN12C renal): > 100 µM | TGI (SN12C renal): > 100 µM | GI50 (SNB-19 CNS): > 100 µM | TGI (SNB-19 CNS): > 100 µM | GI50 (SR leukemia): 3.4 µM | TGI (SR leukemia): 19.5 µM | GI50 (SW-620 colon): 57 µM | TGI (SW-620 colon): > 100 µM | GI50 (T-47D breast): > 100 µM | TGI (T-47D breast): > 100 µM | GI50 (TK-10 renal): > 100 µM | TGI (TK-10 renal): > 100 µM | GI50 (U251 glioblastoma): 18 µM | TGI (U251 glioblastoma): 35.7 µM | GI50 (UACC-257 melanoma): 20 µM | TGI (UACC-257 melanoma): 69.3 µM | GI50 (UACC-62 melanoma): > 100 µM | TGI (UACC-62 melanoma): > 100 µM | GI50 (UO-31 renal): > 100 µM | TGI (UO-31 renal): > 100 µM
